From patent US20200024278A1, “COMPOSITION COMPRISING ANTIBIOTIC COMPOUND AND AN HETEROCYCLIC COMPOUND AND THEIR USE IN PREVENTING OR TREATING BACTERIAL INFECTIONS” (MUTABILIS, priority 2016, published 2020)
Where two headings read alike, the source gives them in different places.

Tests used:
Experiment in all cases: MIC, broth microdilution (CLSI), substance alone or ATB combined with compound at 4 or 8 μg/mL
[1] = tested on: SAU 29213; format: cell-based, S. aureus; conditions: SAU 29213
Summary of the method: (§1)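 Antibiotic MICs were determined in presence of fixed compound at 4 or 8 μg/mL, and compound MICs alone, by visual growth inhibition. Inoculum 5·10^5 CFU/mL in ca-MHB, incubated 35 °C for 16-20 h per CLSI-M7-A7. Glucose-6-phosphate (25 μg/ml) added when fosfomycin was tested.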

[2] = tested on: ECL P99; format: cell-based, E. cloacae; conditions: ECL P99; for MIC: Enterobacter cloacae
Summary of the method: as §1

[3] = tested on: ECO UFR39; format: cell-based, E. coli; conditions: ECO UFR39; for MIC: Escherichia coli
Summary of the method: as §1

[4] = tested on: ECO 190317; format: cell-based, E. coli; conditions: ECO 190317; for MIC: Escherichia coli
Summary of the method: as §1

[5] = tested on: PAE UFR48; format: cell-based, P. aeruginosa; conditions: PAE UFR48
Summary of the method: as §1

[6] = tested on: PAE 105250; format: cell-based, P. aeruginosa; conditions: PAE 105250
Summary of the method: as §1

[7] = antibiotic alone, read-out: MIC ATB alone

CC1(C)S[C@@H]2[C@H](NC(=O)[C@H](N)c3ccc(O)cc3)C(=O)N2[C@H]1C(=O)O [AMX, Amoxicillin, reference compound]
MIC ATB combined with Example 1 @8 μg/ml ([1]; with Example 1 @8 μg/ml): 0.25 µg/mL | MIC ATB combined with Example 1 @8 μg/ml ([1]; with Example 1 at 8 μg/ml): 0.25 µg/mL | MIC ATB combined with Example 9 @4 μg/ml ([1]; with Example 9 @4 μg/ml): <0.031 µg/mL | MIC ATB combined with Example 9 @4 μg/ml ([1]; with Example 9 at 4 μg/ml): <0.031 µg/mL | MIC ATB combined with Example 11 @8 μg/ml ([1]; with Example 11 at 8 μg/ml): <0.031 µg/mL | MIC ATB combined with Example 12 @8 μg/ml ([1]; with Example 12 at 8 μg/ml): <0.031 µg/mL | MIC ATB combined with Example 14 @8 μg/ml ([1]; with Example 14 at 8 μg/ml): <0.031 µg/mL | MIC ATB combined with Example 15 @4 μgml ([1]; with Example 15 at 4 μg/ml): <0.031 µg/mL | MIC ATB combined with Example 16 @4 μg/ml ([1]; with Example 16 at 4 μg/ml): <0.031 µg/mL | MIC ([1]; Staphylococcus aureus, antibiotic alone, read-out: MIC ATB alone): 2 µg/mL | MIC ATB combined with Example 1 @8 μg/ml ([2]; with Example 1 @8 μg/ml): <0.031 µg/mL | MIC ATB combined with Example 1 @8 μg/ml ([2]; with Example 1 at 8 μg/ml): <0.031 µg/mL | MIC ATB combined with Example 7 @8 μgml ([2]; with Example 7 at 8 μg/ml): >32 µg/mL | MIC ATB combined with Example 9 @4 μg/ml ([2]; with Example 9 @4 μg/ml): <0.031 µg/mL | MIC ATB combined with Example 9 @4 μg/ml ([2]; with Example 9 at 4 μg/ml): <0.031 µg/mL | MIC ATB combined with Example 11 @8 μg/ml ([2]; with Example 11 at 8 μg/ml): <0.031 µg/mL | MIC ATB combined with Example 12 @8 μg/ml ([2]; with Example 12 at 8 μg/ml): <0.031 µg/mL | MIC ATB combined with Example 13 @8 μg/ml ([2]; with Example 13 at 8 μg/ml): >32 µg/mL | MIC ATB combined with Example 14 @8 μg/ml ([2]; with Example 14 at 8 μg/ml): <0.031 µg/mL | MIC ATB combined with Example 15 @4 μgml ([2]; with Example 15 at 4 μg/ml): <0.031 µg/mL | MIC ATB combined with Example 16 @4 μg/ml ([2]; with Example 16 at 4 μg/ml): <0.031 µg/mL | MIC [2, 7]: > 1020 µg/mL | MIC ([2]; substance alone, read-out: MIC): > 1020 µg/mL | MIC ATB combined with Example 1 @8 μg/ml ([3]; with Example 1 @8 μg/ml): <0.031 µg/mL | MIC ATB combined with Example 1 @8 μg/ml ([3]; with Example 1 at 8 μg/ml): <0.031 µg/mL | MIC ATB combined with Example 7 @8 μgml ([3]; with Example 7 at 8 μg/ml): <0.031 µg/mL | MIC ATB combined with Example 9 @4 μg/ml ([3]; with Example 9 @4 μg/ml): <0.031 µg/mL | MIC ATB combined with Example 9 @4 μg/ml ([3]; with Example 9 at 4 μg/ml): <0.031 µg/mL | MIC ATB combined with Example 11 @8 μg/ml ([3]; with Example 11 at 8 μg/ml): <0.031 µg/mL | MIC ATB combined with Example 12 @8 μg/ml ([3]; with Example 12 at 8 μg/ml): <0.031 µg/mL | MIC ATB combined with Example 13 @8 μg/ml ([3]; with Example 13 at 8 μg/ml): <0.031 µg/mL | MIC ATB combined with Example 14 @8 μg/ml ([3]; with Example 14 at 8 μg/ml): <0.031 µg/mL | MIC ATB combined with Example 15 @4 μgml ([3]; with Example 15 at 4 μg/ml): <0.031 µg/mL | MIC ATB combined with Example 16 @4 μg/ml ([3]; with Example 16 at 4 μg/ml): <0.031 µg/mL | MIC [3, 7]: > 1020 µg/mL | MIC ([3]; substance alone, read-out: MIC): > 1020 µg/mL | MIC ATB combined with Example 1 @8 μg/ml ([4]; with Example 1 @8 μg/ml): <0.031 µg/mL | MIC ATB combined with Example 1 @8 μg/ml ([4]; with Example 1 at 8 μg/ml): <0.031 µg/mL | MIC ATB combined with Example 7 @8 μgml ([4]; with Example 7 at 8 μg/ml): <0.031 µg/mL | MIC ATB combined with Example 9 @4 μg/ml ([4]; with Example 9 @4 μg/ml): <0.031 µg/mL | MIC ATB combined with Example 9 @4 μg/ml ([4]; with Example 9 at 4 μg/ml): <0.031 µg/mL | MIC ATB combined with Example 11 @8 μg/ml ([4]; with Example 11 at 8 μg/ml): <0.031 µg/mL | MIC ATB combined with Example 12 @8 μg/ml ([4]; with Example 12 at 8 μg/ml): <0.031 µg/mL | MIC ATB combined with Example 13 @8 μg/ml ([4]; with Example 13 at 8 μg/ml): <0.031 µg/mL | MIC ATB combined with Example 14 @8 μg/ml ([4]; with Example 14 at 8 μg/ml): <0.031 µg/mL | MIC ATB combined with Example 15 @4 μgml ([4]; with Example 15 at 4 μg/ml): <0.031 µg/mL | MIC ATB combined with Example 16 @4 μg/ml ([4]; with Example 16 at 4 μg/ml): <0.031 µg/mL | MIC [4, 7]: > 1020 µg/mL | MIC ([4]; substance alone, read-out: MIC): > 1020 µg/mL | MIC ATB combined with Example 1 @8 μg/ml ([5]; with Example 1 @8 μg/ml): <0.031 µg/mL | MIC ATB combined with Example 1 @8 μg/ml ([5]; with Example 1 at 8 μg/ml): <0.031 µg/mL | MIC ATB combined with Example 7 @8 μgml ([5]; with Example 7 at 8 μg/ml): >32 µg/mL | MIC ATB combined with Example 9 @4 μg/ml ([5]; with Example 9 @4 μg/ml): >32 µg/mL | MIC ATB combined with Example 9 @4 μg/ml ([5]; with Example 9 at 4 μg/ml): >32 µg/mL | MIC ATB combined with Example 11 @8 μg/ml ([5]; with Example 11 at 8 μg/ml): >32 µg/mL | MIC ATB combined with Example 12 @8 μg/ml ([5]; with Example 12 at 8 μg/ml): >32 µg/mL | MIC ATB combined with Example 13 @8 μg/ml ([5]; with Example 13 at 8 μg/ml): >32 µg/mL | MIC ATB combined with Example 14 @8 μg/ml ([5]; with Example 14 at 8 μg/ml): >32 µg/mL | MIC ATB combined with Example 15 @4 μgml ([5]; with Example 15 at 4 μg/ml): >32 µg/mL | MIC ATB combined with Example 16 @4 μg/ml ([5]; with Example 16 at 4 μg/ml): >32 µg/mL | MIC ([5]; Pseudomonas aeruginosa, antibiotic alone, read-out: MIC ATB alone): > 1020 µg/mL | MIC ATB combined with Example 7 @8 μgml ([6]; with Example 7 at 8 μg/ml): >32 µg/mL | MIC ATB combined with Example 9 @4 μg/ml ([6]; with Example 9 @4 μg/ml): >32 µg/mL | MIC ATB combined with Example 9 @4 μg/ml ([6]; with Example 9 at 4 μg/ml): >32 µg/mL | MIC ATB combined with Example 11 @8 μg/ml ([6]; with Example 11 at 8 μg/ml): >32 µg/mL
